Like-named read-outs stand apart in the source and are kept apart here.
Tests used:
[1] = cited from earlier work; for pKa: reported value
ThermoGen esterases [2] = assay: Initial screening (pH indicator): esters as substrates of the ThermoGen esterases, statements for the esterases as a group; assay type: biochemical; details: for quality as substrate of the ThermoGen esterases (in words): esters 1-31, initial screening; for estimated enantioselectivities with ThermoGen esterases (in words): ratio of initial rates of enantiomer pairs; for quality as substrate of the ThermoGen esterases (in words), enantiomer pairs: enantiomer pair library, Tables 8-12
Experimental: (§1) Initial screening measures the initial rate of hydrolysis of different esters. The rate of reaction was measured by monitoring the release of protons using a pH indicator, 4-nitrophenol. In this assay, the yellow color of the phenoxide disappears as the reaction proceeds. The amount of ester hydrolyzed can be measured quantitatively, as is known in the art.
(§2) To survey the substrate selectivity of the ThermoGen esterases, the ability of the enzymes to hydrolyze thirty-one different commercially-available esters, Scheme 1 (FIG. 9, Table 6).
To evaluate the potential of the ThermoGen esterases for enantioselective reactions, the initial rates of hydrolysis of the esterases were measured using twenty-one pairs of enantiomers, Scheme 2, FIG. 10 and Tables 8-12. The ratio of these initial rates is an estimated enantioselectivity.

esterase E020 = assay: Initial screening of ThermoGen esterases toward esters 1-31 (pH indicator), specific activity; assay type: biochemical; details: 1 mM substrate, pH 7.2, 7 vol % acetonitrile, 25° C.
Experimental: as §1, §2

esterase E015 = assay: as above; assay type: biochemical; details: 1 mM substrate, pH 7.2, 7 vol % acetonitrile, 25° C.
Experimental: as §1, §2

esterase E016 = assay: as above; assay type: biochemical; details: 1 mM substrate, pH 7.2, 7 vol % acetonitrile, 25° C.
Experimental: as §1, §2

esterase E014 = assay: as above; assay type: biochemical; details: 1 mM substrate, pH 7.2, 7 vol % acetonitrile, 25° C.
Experimental: as §1, §2

esterase E006 = assay: as above; assay type: biochemical; details: 1 mM substrate, pH 7.2, 7 vol % acetonitrile, 25° C.
Experimental: as §1, §2

esterase E012 = assay: as above; assay type: biochemical; details: 1 mM substrate, pH 7.2, 7 vol % acetonitrile, 25° C.
Experimental: as §1, §2

esterase E011 = assay: as above; assay type: biochemical; details: 1 mM substrate, pH 7.2, 7 vol % acetonitrile, 25° C.
Experimental: as §1

ThermoGen esterases [3] = assay: True substrate selectivity measurements (competitive, resorufin ester), esters as substrates of the ThermoGen esterases; assay type: biochemical
Experimental: Esterase solution (5 μL in 5 mM BES) was added to each well and the microplate was placed in the microplate reader, shaken for 5 s and the decrease in absorbance at 404 nm and the increase in absorbance at 574 nm were measured as often as permitted by the microplate reader, typically every 11 s. Data was collected for 20 minutes, at 25° C., in triplicate and was averaged. Activities were calculated from the equations above using the linear, initial portions of the curve.
However, it is faster to measure selectivity of each substrate as it competes against a third substrate, which we call a reference compound. The ratio of the two competitive reactions is the true selectivity. […] Since some substrates react rapidly while others react slowly, we require both fast-reacting and slow-reacting reference compounds. In some cases we replaced resorufin acetate with the slower reacting resorufin pivaloate or resorufin isobutyrate as reference compounds.
The true selectivity of the ThermoGen esterases toward different acyl chain length was determined using a competitive experiment. Resorufin esters were used as the competitive substrate as explained above and normalized the results to hexanoate =100, Table 7. The true selectivities were similar to the estimated selectivities.

Experimental for physchem: The large difference in the extinction coefficients of the protonated and deprotonated forms (200 vs 18,000 M^−1 cm^−1 at 404 nm) gave good sensitivity. The extinction coefficients changed slightly upon addition of cosolvent and was determined experimentally.

O=S(=O)(O)CCCN1CCN(CCO)CC1 [EPPS, N-[2-hydroxylethyl]piperazine-N′-[3-propanesulfonic acid]]
pKa [1]: 8.0

CC(=O)Oc1ccccc1 [Substrate 26]
quality as substrate of the ThermoGen esterases (in words) (ThermoGen esterases [2]): best substrates
Specific activity, esterase E020 (esterase E020): 390 mmol ester hydrolyzed/min/mg protein
Specific activity, esterase E015 (esterase E015): 320 mmol ester hydrolyzed/min/mg protein
Specific activity, esterase E016 (esterase E016): 190 mmol ester hydrolyzed/min/mg protein
Specific activity, esterase E014 (esterase E014): 150 mmol ester hydrolyzed/min/mg protein
Specific activity, esterase E006 (esterase E006): 300 mmol ester hydrolyzed/min/mg protein
Specific activity, esterase E012 (esterase E012): 30 mmol ester hydrolyzed/min/mg protein
Specific activity, esterase E011 (esterase E011): 270 mmol ester hydrolyzed/min/mg protein

CCOC(=O)C(F)(F)F [Substrate 17]
quality as substrate of the ThermoGen esterases (in words) (ThermoGen esterases [2]): best substrates
Specific activity, esterase E020 (esterase E020): 0.35 mmol ester hydrolyzed/min/mg protein
Specific activity, esterase E015 (esterase E015): 190 mmol ester hydrolyzed/min/mg protein
Specific activity, esterase E016 (esterase E016): 1500 mmol ester hydrolyzed/min/mg protein
Specific activity, esterase E014 (esterase E014): 1.4 mmol ester hydrolyzed/min/mg protein
Specific activity, esterase E006 (esterase E006): 1.7 mmol ester hydrolyzed/min/mg protein
Specific activity, esterase E012 (esterase E012): 1200 mmol ester hydrolyzed/min/mg protein
Specific activity, esterase E011 (esterase E011): 2.7 mmol ester hydrolyzed/min/mg protein

COC(=O)CO [Substrate 20]
quality as substrate of the ThermoGen esterases (in words) (ThermoGen esterases [2]): usually poor substrates
Specific activity, esterase E020 (esterase E020): <0.2 mmol ester hydrolyzed/min/mg protein
Specific activity, esterase E015 (esterase E015): <0.1 mmol ester hydrolyzed/min/mg protein
Specific activity, esterase E016 (esterase E016): <2 mmol ester hydrolyzed/min/mg protein
Specific activity, esterase E014 (esterase E014): <0.1 mmol ester hydrolyzed/min/mg protein
Specific activity, esterase E006 (esterase E006): 0.11 mmol ester hydrolyzed/min/mg protein
Specific activity, esterase E012 (esterase E012): <2 mmol ester hydrolyzed/min/mg protein
Specific activity, esterase E011 (esterase E011): <0.1 mmol ester hydrolyzed/min/mg protein

C=COC(=O)C(C)(C)C [Substrate 11, vinyl pivaloate]
quality as substrate in true selectivity measurements (in words) (ThermoGen esterases [3]): poor substrates

CCCC(=O)OC(C)c1ccccc1 (single isomer, unassigned) [Substrate 38]
estimated enantioselectivities with ThermoGen esterases (in words) (ThermoGen esterases [2]): higher estimated enantioselectivities with most ThermoGen esterases

CC1(C)COC(=O)C1O (single isomer, unassigned) [Substrate 52]
quality as substrate of the ThermoGen esterases (in words), enantiomer pairs (ThermoGen esterases [2]): poorest substrates

O=c1ccc2nc3ccc(O)cc3oc-2c1 [resorufin alcohol, resorufin]
pKa (physchem): 8.15

CC(C)(C)CC(=O)Oc1ccc2nc3ccc(=O)cc-3oc2c1 [Substrate 10, Resorufin t-butylacetate (resorufin 3,3-dimethylbutyrate), reference compound]
quality as substrate of the ThermoGen esterases (in words) (ThermoGen esterases [2]): good substrate for several esterases
Specific activity, esterase E020 (esterase E020): 14 mmol ester hydrolyzed/min/mg protein
Specific activity, esterase E015 (esterase E015): 5.9 mmol ester hydrolyzed/min/mg protein
Specific activity, esterase E016 (esterase E016): 50 mmol ester hydrolyzed/min/mg protein
Specific activity, esterase E014 (esterase E014): 1.0 mmol ester hydrolyzed/min/mg protein
Specific activity, esterase E006 (esterase E006): 5.7 mmol ester hydrolyzed/min/mg protein
Specific activity, esterase E012 (esterase E012): 22 mmol ester hydrolyzed/min/mg protein
Specific activity, esterase E011 (esterase E011): 2.7 mmol ester hydrolyzed/min/mg protein

CCCC(=O)OCC1COC(C)(C)O1 (single isomer, unassigned) [Substrate 32]
quality as substrate of the ThermoGen esterases (in words), enantiomer pairs (ThermoGen esterases [2]): best substrates

COC(=O)C(N)Cc1c[nH]c2ccccc12 (single isomer, unassigned) [Substrate 50]
estimated enantioselectivities with ThermoGen esterases (in words) (ThermoGen esterases [2]): estimated enantioselectivities above two with several esterases

CCCC(=O)OCC [Substrate 13]
quality as substrate of the ThermoGen esterases (in words) (ThermoGen esterases [2]): reacted much slower
Specific activity, esterase E020 (esterase E020): 3.0 mmol ester hydrolyzed/min/mg protein
Specific activity, esterase E015 (esterase E015): 2.0 mmol ester hydrolyzed/min/mg protein
Specific activity, esterase E016 (esterase E016): 3.5 mmol ester hydrolyzed/min/mg protein
Specific activity, esterase E014 (esterase E014): 0.40 mmol ester hydrolyzed/min/mg protein
Specific activity, esterase E006 (esterase E006): 1.1 mmol ester hydrolyzed/min/mg protein
Specific activity, esterase E012 (esterase E012): <2 mmol ester hydrolyzed/min/mg protein
Specific activity, esterase E011 (esterase E011): 0.71 mmol ester hydrolyzed/min/mg protein

O=S(=O)(O)CCN1CCOCC1 [MES, 2-[N-morpholino]ethanesulfonic acid]
pKa [1]: 6.1

COC(=O)CC(C)O (single isomer, unassigned) [Substrate 40]
quality as substrate of the ThermoGen esterases (in words), enantiomer pairs (ThermoGen esterases [2]): poorest substrates

COC(=O)C1COC(C)(C)O1 (single isomer, unassigned) [Substrate 43]
estimated enantioselectivities with ThermoGen esterases (in words) (ThermoGen esterases [2]): estimated enantioselectivities above two with several esterases

C=COC(=O)C(C)(C)C [Substrate 11]
quality as substrate of the ThermoGen esterases (in words) (ThermoGen esterases [2]): poor substrate for all the esterases
Specific activity, esterase E020 (esterase E020): 1.2 mmol ester hydrolyzed/min/mg protein
Specific activity, esterase E015 (esterase E015): 4.0 mmol ester hydrolyzed/min/mg protein
Specific activity, esterase E016 (esterase E016): 20 mmol ester hydrolyzed/min/mg protein
Specific activity, esterase E014 (esterase E014): 0.40 mmol ester hydrolyzed/min/mg protein
Specific activity, esterase E006 (esterase E006): 0.52 mmol ester hydrolyzed/min/mg protein
Specific activity, esterase E012 (esterase E012): 16 mmol ester hydrolyzed/min/mg protein
Specific activity, esterase E011 (esterase E011): 0.80 mmol ester hydrolyzed/min/mg protein

Cc1cc(O)c(C(C)C)cc1C1(c2cc(C(C)C)c(O)cc2C)OS(=O)(=O)c2ccccc21 [thymol blue]
pKa [1]: 9.2

CC(=O)OC1CC(C)CCC1C(C)C (centres unmarked) [Substrate 36]
estimated enantioselectivities with ThermoGen esterases (in words) (ThermoGen esterases [2]): estimated enantioselectivities above two with several esterases

COC(=O)C(O)c1ccccc1 (centres unmarked) [Substrate 21]
quality as substrate of the ThermoGen esterases (in words) (ThermoGen esterases [2]): usually poor substrates
Specific activity, esterase E020 (esterase E020): <0.2 mmol ester hydrolyzed/min/mg protein
Specific activity, esterase E015 (esterase E015): <0.1 mmol ester hydrolyzed/min/mg protein
Specific activity, esterase E016 (esterase E016): <2 mmol ester hydrolyzed/min/mg protein
Specific activity, esterase E014 (esterase E014): <0.1 mmol ester hydrolyzed/min/mg protein
Specific activity, esterase E006 (esterase E006): <0.1 mmol ester hydrolyzed/min/mg protein
Specific activity, esterase E012 (esterase E012): <2 mmol ester hydrolyzed/min/mg protein
Specific activity, esterase E011 (esterase E011): 0.04 mmol ester hydrolyzed/min/mg protein

O=S1(=O)OC(c2ccc(O)c(Cl)c2)(c2ccc(O)c(Cl)c2)c2ccccc21 [chlorophenol red]
pKa [1]: 6.0

CCOC(=O)CN.Cl [Substrate 31]
quality as substrate of the ThermoGen esterases (in words) (ThermoGen esterases [2]): usually poor substrates
Specific activity, esterase E020 (esterase E020): 1.4 mmol ester hydrolyzed/min/mg protein
Specific activity, esterase E015 (esterase E015): <0.1 mmol ester hydrolyzed/min/mg protein
Specific activity, esterase E016 (esterase E016): 13 mmol ester hydrolyzed/min/mg protein
Specific activity, esterase E014 (esterase E014): <0.1 mmol ester hydrolyzed/min/mg protein
Specific activity, esterase E006 (esterase E006): <0.1 mmol ester hydrolyzed/min/mg protein
Specific activity, esterase E012 (esterase E012): 6.0 mmol ester hydrolyzed/min/mg protein
Specific activity, esterase E011 (esterase E011): 0.1 mmol ester hydrolyzed/min/mg protein

C=COC(=O)c1ccccc1 [Substrate 10, vinyl benzoate]
quality as substrate in true selectivity measurements (in words) (ThermoGen esterases [3]): poor substrates

O=[N+]([O-])c1ccc(O)cc1 [4-nitrophenol]
pKa upon addition of 10% ethanol ([1]; previously shown): 7.17
pKa [1]: 7.2

Reference: patent publication US20020177180A1, “pH-indicator based assay for selective enzymes” (ThermoGen, Inc., priority 1998, published 2002)
